In test [1] the test system is L5178Y cells. The test can be described thus: Inhibitory effect upon the multiplication of tumor cells (L5178Y). Type of test: cell-based. To be noted: Mus musculus, RPMI1640 + 10% fetal calf serum, 48 hours, 37° C., concentration giving cell count of 50% of control, read-out: ED50 (the source's name). How it is done:
Inhibitory effect upon the multiplication of tumor cells
The inhibitory effects of compound (I) upon the multiplication of cells were detected using L5178Y cells (tumor cell) in RPMI1640 medium+10% fetal calf serum for 48 hours at 37° C.
The result was expressed in the concentration of the drug giving a cell count of 50% (ED50) with the average number of cells for the control (not medicated) group on the 2nd day being taken as 100%.

The subject of test [2] is Ehlrich carcinoma cells. The test can be described thus: Growth inhibition of transplanted Ehrlich carcinoma in mice (Experimental Example 1 repeated). The format is in vivo, mouse. To be noted: mice with Ehrlich carcinoma; as Experimental Example 1: 0.5 mg/kg i.p. once daily for 20 days; day 35. The procedure: (§1) One×10^6 Sarcoma 180 cells were subcutaneously transplanted into the right groin of an ICR mouse weighing about 20 grams and starting 24 hours after transplantation, 0.5 mg/kg of the compound of Example 1 in distilled water for injection was intraperitoneally administered once daily for 20 consecutive days. On day 35 after transplantation, the tumorous node was incised, weighed and compared with the specimen of the control (without medication) group. The percent inhibition was 58% relative to the control.
The experiment described in Experimental Example 1 was repeated except that mice transplanted with Ehlrich carcinoma cells were employed.

Test [3] concerns Sarcoma 180. The test can be described thus: Growth inhibition of subcutaneously transplanted Sarcoma 180 in ICR mouse (tumor weight). Type of test: in vivo. To be noted: 1×10^6 cells s.c., 0.5 mg/kg i.p. once daily for 20 consecutive days from 24 h, day 35. The procedure: as §1

Each structure is given as a SMILES string. Counter-ions that a name gives are not always drawn.

Turning to `Nc1nc2[nH]cc(CNC3CCCC3)c2c(=O)[nH]1` [Example 2, 2-amino-5-cyclopentylaminomethylpyrrolo[2,3-d]pyrimidin-4-one(dihydrochloride)], the IC50 in test [1] is 40 µg/mL.

As to `Nc1nc2[nH]cc(CN[C@H]3C=C[C@H](O)[C@@H]3O)c2c(=O)[nH]1` [Q base, reference compound], in test [1], the IC50 is above 200 µg/mL.

For `CCCNCc1c[nH]c2nc(N)[nH]c(=O)c12` [Example 1, 2-amino-5-propylaminomethylpyrrolo[2,3-d]pyrimidin-4-one (dihydrochloride)], the “percent inhibition rate (tumor weight relative to control)” value in test [2] was found to be 75%. For the same molecule, in test [3], the “percent inhibition (tumor weight relative to control)” value is given as 58%.

In the case of `Nc1nc2[nH]cc(CNCc3ccccc3)c2c(=O)[nH]1` [Example 4, 2-amino-5-benzylaminomethylpyrrolo[2,3-d]pyrimidin-4-one], the IC50 in test [1] turned out to be 30 µg/mL.

Regarding `Nc1nc2[nH]cc(CN3CCCCC3)c2c(=O)[nH]1` [Example 3, 2-amino-5-piperidinomethylpyrrolo[2,3-d]pyrimidin-4-one (dihydrochloride)], the IC50 in test [1] was determined as 120 µg/mL.

These data come from US4435569A, “5-[Substituted amino methyl]pyrrolo[2,3-d]pyrimidine-4-one” (Takeda Chemical Industries, Ltd., priority 1981, dated 1984).
